Results: patent US20260297080A1, “BICYCLIC COMPOUNDS AS CDK INHIBITORS” (BeOne Medicines I GmbH, priority 2022, published 2026)

Assays:
[1] = biological target: CDK2/Cyclin E1 (Homo sapiens, UniProt P24941); assay: CDK2/Cyclin E1 Biochemical Assay (TR-FRET), 0.060 mM ATP; settings: 0.15 μM Rb (Ser780)-biotin substrate, pH7.0, 60 min preincubation, 120 min reaction, room temperature
Summary of the method: (§1)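 Phosphorylation of a biotin-tagged Rb Ser780 peptide (0.15 μM) is measured by time-resolved FRET between a europium-labelled phospho-specific antibody and streptavidin-XL665. Compound (0–10 μM) sits with enzyme 60 min first; the kinase reaction then proceeds 120 min at room temperature, pH 7.0.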

[2] = biological target: CDK1/Cyclin B1 (Homo sapiens, UniProt P06493); assay: CDK1/Cyclin B1 Biochemical Assay (TR-FRET), 0.015 mM ATP; settings: 0.15 μM Rb (Ser780)-biotin substrate, pH7.0, 60 min preincubation, 120 min reaction, room temperature
Summary of the method: as §1

CDK1/Cyclin B1, sequence (P06493 whole entry): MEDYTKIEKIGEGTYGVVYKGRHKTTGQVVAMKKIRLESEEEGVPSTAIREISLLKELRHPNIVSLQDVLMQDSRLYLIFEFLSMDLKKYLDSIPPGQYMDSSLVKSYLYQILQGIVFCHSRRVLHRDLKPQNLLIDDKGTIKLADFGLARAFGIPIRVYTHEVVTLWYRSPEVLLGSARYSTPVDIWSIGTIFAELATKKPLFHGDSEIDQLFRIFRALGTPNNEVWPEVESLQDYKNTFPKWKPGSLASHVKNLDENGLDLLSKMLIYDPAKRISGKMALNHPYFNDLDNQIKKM
CDK1/Cyclin B1, sequence (P14635 whole entry partner): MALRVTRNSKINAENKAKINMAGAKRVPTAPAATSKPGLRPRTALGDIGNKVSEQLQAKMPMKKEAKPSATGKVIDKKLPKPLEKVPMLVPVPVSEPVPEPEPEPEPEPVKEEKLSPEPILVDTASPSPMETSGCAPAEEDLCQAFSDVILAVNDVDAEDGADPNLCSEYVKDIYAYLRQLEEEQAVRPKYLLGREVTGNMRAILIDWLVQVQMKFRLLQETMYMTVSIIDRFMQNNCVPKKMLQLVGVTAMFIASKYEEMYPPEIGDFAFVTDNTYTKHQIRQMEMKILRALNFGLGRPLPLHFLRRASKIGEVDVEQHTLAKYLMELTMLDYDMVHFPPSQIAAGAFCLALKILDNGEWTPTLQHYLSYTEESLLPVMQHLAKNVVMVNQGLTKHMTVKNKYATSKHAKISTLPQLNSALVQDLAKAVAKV

COCC1(NC(=O)O[C@H]2CC[C@@H](c3cc(Nc4ccc5c(c4F)CNS5(=O)=O)n[nH]3)C2)CC1 (single isomer, unassigned) [Example 158a, cis-3-(3-((4-fluoro-1,1-dioxido-2,3-dihydrobenzo[d]isothiazol-5-yl)amino)-1H-pyrazol-5-yl)cyclopentyl(1-(methoxymethyl)cyclopropyl)carbamate]
IC50 [1]: 0.0053 µM | IC50 [2]: 0.799 µM

CC(C)NC(=O)O[C@H]1CC[C@@H](c2cc(Nc3ccc4c(c3F)CN(C3CCN(C)CC3)S4(=O)=O)n[nH]2)C1 (relative stereo) [Example 62, cis-3-(3-((4-fluoro-2-(1-methylpiperidin-4-yl)-1,1-dioxido-2,3-dihydrobenzo[d]isothiazol-5-yl)amino)-1H-pyrazol-5-yl)cyclopentyl isopropylcarbamate]
IC50 [1]: 0.0095 µM | IC50 [2]: 0.758 µM

CC(C)NC(=O)O[C@H]1CC[C@@H](c2cc(Nc3c(F)cc4c(c3O)CNS4(=O)=O)n[nH]2)C1 (relative stereo) [Example 406, cis-3-(3-((6-fluoro-4-hydroxy-1,1-dioxido-2,3-dihydrobenzo[d]isothiazol-5-yl)amino)-1H-pyrazol-5-yl)cyclopentyl isopropylcarbamate]
IC50 [1]: 0.601 µM | IC50 [2]: > 10 µM

COCC(C)(C)NC(=O)O[C@H]1CC[C@@H](c2cc(Nc3ccc4c(c3F)CN(C3CC3)S4(=O)=O)n[nH]2)C1 (relative stereo) [Example 371, cis-3-(3-((2-cyclopropyl-4-fluoro-1,1-dioxido-2,3-dihydrobenzo[d]isothiazol-5-yl)amino)-1H-pyrazol-5-yl)cyclopentyl(1-methoxy-2-methylpropan-2-yl)carbamate]
IC50 [1]: 0.0035 µM | IC50 [2]: 0.265 µM

CC(C)(C)NC(=O)O[C@@H]1CC[C@H](c2cc(Nc3ccc4c(c3)CS(=O)(=O)N4)n[nH]2)C1 [Example 403a]
IC50 [1]: 0.001 µM | IC50 [2]: 0.01 µM

C[C@@H](CO)NC(=O)O[C@H]1CC[C@@H](c2cc(Nc3ccc4c(c3F)CN(C)S4(=O)=O)n[nH]2)C1 (relative stereo) [Example 351, cis-3-(3-((4-fluoro-2-methyl-1,1-dioxido-2,3-dihydrobenzo[d]isothiazol-5-yl)amino)-1H-pyrazol-5-yl)cyclopentyl((S)-1-hydroxypropan-2-yl)carbamate]
IC50 [1]: 0.04 µM | IC50 [2]: 0.658 µM

CC(C)NC(=O)O[C@H]1CC[C@@H](c2cc(Nc3ccc4c(c3F)CN(C3COC3)S4(=O)=O)n[nH]2)C1 (single isomer, unassigned) [Example 133a, cis-3-(3-((4-fluoro-2-(oxetan-3-yl)-1,1-dioxido-2,3-dihydrobenzo[d]isothiazol-5-yl)amino)-1H-pyrazol-5-yl)cyclopentyl isopropylcarbamate]
IC50 [1]: 0.024 µM | IC50 [2]: 1.08 µM

CC[C@H](C)NC(=O)O[C@H]1CC[C@@H](c2cc(Nc3ccc4c(c3)CS(=O)(=O)N4)n[nH]2)C1 (single isomer, unassigned) [Example 323b]
IC50 [1]: 0.0062 µM | IC50 [2]: 0.017 µM

CC1(NC(=O)O[C@H]2CC[C@@H](c3cc(Nc4ccc5c(c4F)CN(C4CC4)S5(=O)=O)n[nH]3)C2)CC1 (racemic) [Example 119, cis-3-(3-((2-cyclopropyl-4-fluoro-1,1-dioxido-2,3-dihydrobenzo[d]isothiazol-5-yl)amino)-1H-pyrazol-5-yl)cyclopentyl(1-methylcyclopropyl)carbamate]
IC50 [1]: 0.0027 µM | IC50 [2]: 0.146 µM

CCCNC(=O)O[C@H]1CC[C@@H](c2cc(Nc3cc4c(cc3F)N(CCO)S(=O)(=O)C4)n[nH]2)C1 (relative stereo) [Example 297, cis-3-(3-((6-fluoro-1-(2-hydroxyethyl)-2,2-dioxido-1,3-dihydrobenzo[c]isothiazol-5-yl)amino)-1H-pyrazol-5-yl)cyclopentyl propylcarbamate]
IC50 [1]: 0.038 µM | IC50 [2]: 0.607 µM

CCCNC(=O)O[C@H]1CC[C@@H](c2cc(Nc3ccc4c(c3F)CN(C3CC3)S4(=O)=O)n[nH]2)C1 (single isomer, unassigned) [Example 118b, cis-3-(3-((2-cyclopropyl-4-fluoro-1,1-dioxido-2,3-dihydrobenzo[d]isothiazol-5-yl)amino)-1H-pyrazol-5-yl)cyclopentyl propylcarbamate]
IC50 [1]: 0.008 µM | IC50 [2]: 0.168 µM

CC(C)NC(=O)O[C@H]1CC[C@@H](c2cc(Nc3ccc4c(c3F)CN(CC3CNC3)S4(=O)=O)n[nH]2)C1 (relative stereo) [Example 105, cis-3-(3-((2-(azetidin-3-ylmethyl)-4-fluoro-1,1-dioxido-2,3-dihydrobenzo[d]isothiazol-5-yl)amino)-1H-pyrazol-5-yl)cyclopentyl isopropylcarbamate]
IC50 [1]: 0.0084 µM | IC50 [2]: 0.689 µM

CC(C)(C)NC(=O)O[C@H]1CC[C@@H](c2cc(Nc3cc4c(cc3F)NS(=O)(=O)C4)n[nH]2)C1 [Example 404b]
IC50 [1]: 0.014 µM | IC50 [2]: 0.458 µM

CC(C)NC(=O)O[C@H]1CC[C@@H](c2cc(Nc3ccc4c(c3F)C(CCO)S(=O)(=O)N4CCO)n[nH]2)C1 (relative stereo) [Example 253, cis-3-(3-((4-fluoro-1,3-bis(2-hydroxyethyl)-2,2-dioxido-1,3-dihydrobenzo[c]isothiazol-5-yl)amino)-1H-pyrazol-5-yl)cyclopentyl isopropylcarbamate]
IC50 [1]: 0.0043 µM | IC50 [2]: 0.096 µM

CC(C)NC(=O)O[C@H]1CC[C@@H](c2cc(Nc3ccc4c(c3F)CN(C3CC3)S4(=O)=O)n[nH]2)C1 (single isomer, unassigned) [Example 116b, cis-3-(3-((2-cyclopropyl-4-fluoro-1,1-dioxido-2,3-dihydrobenzo[d]isothiazol-5-yl)amino)-1H-pyrazol-5-yl)cyclopentyl isopropylcarbamate]
IC50 [1]: 0.0054 µM | IC50 [2]: 0.189 µM

CC(C)NC(=O)O[C@@H]1CC[C@H](c2cc(Nc3ccc4c(c3)CS(=O)(=O)N4)n[nH]2)C1 (single isomer, unassigned) [Example 7a]
IC50 [1]: 0.0009 µM | IC50 [2]: 0.028 µM

CN1c2ccc(Nc3cc([C@@H]4CC[C@H](OC(=O)NC5(C)CC5)C4)[nH]n3)cc2CS1(=O)=O (relative stereo) [Example 223, cis-3-(3-((1-methyl-2,2-dioxido-1,3-dihydrobenzo[c]isothiazol-5-yl)amino)-1H-pyrazol-5-yl)cyclopentyl(1-methylcyclopropyl)carbamate]
IC50 [1]: 0.0055 µM | IC50 [2]: 0.035 µM

CN1c2ccc(Nc3cc([C@@H]4CC[C@H](OC(=O)NC5CCC5)C4)[nH]n3)cc2CS1(=O)=O (racemic) [Example 227, cis-3-(3-((1-methyl-2,2-dioxido-1,3-dihydrobenzo[c]isothiazol-5-yl)amino)-1H-pyrazol-5-yl)cyclopentyl cyclobutylcarbamate]
IC50 [1]: 0.005 µM | IC50 [2]: 0.249 µM

CCCNC(=O)O[C@H]1CC[C@@H](c2cc(Nc3ccc4c(c3F)CS(=O)(=O)N4CC(F)(F)F)n[nH]2)C1 [Example 266b]
IC50 [1]: 0.0035 µM | IC50 [2]: 0.059 µM

CCCNC(=O)O[C@H]1CC[C@@H](c2cc(Nc3ccc4c(c3Cl)CNS4(=O)=O)n[nH]2)C1 (single isomer, unassigned) [Example 39a, cis-3-(3-((4-chloro-1,1-dioxido-2,3-dihydrobenzo[d]isothiazol-5-yl)amino)-1H-pyrazol-5-yl)cyclopentyl propylcarbamate]
IC50 [1]: 0.049 µM | IC50 [2]: 1.36 µM

CC(C)NC(=O)O[C@H]1CC[C@@H](c2cc(Nc3ccc4c(c3F)CN(C3CN(S(C)(=O)=O)C3)S4(=O)=O)n[nH]2)C1 (relative stereo) [Example 89, cis-3-(3-((4-fluoro-2-(1-(methylsulfonyl)azetidin-3-yl)-1,1-dioxido-2,3-dihydrobenzo[d]isothiazol-5-yl)amino)-1H-pyrazol-5-yl)cyclopentyl isopropylcarbamate]
IC50 [1]: 0.034 µM | IC50 [2]: 0.879 µM

CC(C)NC(=O)O[C@H]1CC[C@@H](c2cc(Nc3ccc4c(c3)CC(=O)NS4(=O)=O)n[nH]2)C1 (relative stereo) [Example 171, cis-3-(3-((1,1-dioxido-3-oxo-3,4-dihydro-2H-benzo[e][1,2]thiazin-6-yl)amino)-1H-pyrazol-5-yl)cyclopentyl isopropylcarbamate]
IC50 [1]: 0.01 µM | IC50 [2]: 0.183 µM

CC(C)NC(=O)O[C@H]1CC[C@@H](c2cc(Nc3cc4c(cc3F)N(CCO)S(=O)(=O)C4)n[nH]2)C1 (single isomer, unassigned) [Example 296b, cis-3-(3-((6-fluoro-1-(2-hydroxyethyl)-2,2-dioxido-1,3-dihydrobenzo[c]isothiazol-5-yl)amino)-1H-pyrazol-5-yl)cyclopentyl isopropylcarbamate]
IC50 [1]: 0.0084 µM | IC50 [2]: 0.497 µM

CC[C@H](C)NC(=O)O[C@H]1CC[C@@H](c2cc(Nc3ccc4c(c3Cl)CNS4(=O)=O)n[nH]2)C1 (relative stereo) [Example 41, cis-3-(3-((4-chloro-1,1-dioxido-2,3-dihydrobenzo[d]isothiazol-5-yl)amino)-1H-pyrazol-5-yl)cyclopentyl((S)-sec-butyl)carbamate]
IC50 [1]: 0.0023 µM | IC50 [2]: 0.512 µM

CC(CC(F)(F)F)NC(=O)O[C@H]1CC[C@@H](c2cc(Nc3cc4c(cc3F)S(=O)(=O)NC4)n[nH]2)C1 (relative stereo) [Example 412, cis-3-(3-((6-fluoro-1,1-dioxido-2,3-dihydrobenzo[d]isothiazol-5-yl)amino)-1H-pyrazol-5-yl)cyclopentyl(4,4,4-trifluorobutan-2-yl)carbamate]
IC50 [1]: 0.0018 µM | IC50 [2]: 0.147 µM

COCC(C)NC(=O)O[C@H]1CC[C@@H](c2cc(Nc3ccc4c(c3F)CN(C)S4(=O)=O)n[nH]2)C1 (relative stereo) [Example 338, cis-3-(3-((4-fluoro-2-methyl-1,1-dioxido-2,3-dihydrobenzo[d]isothiazol-5-yl)amino)-1H-pyrazol-5-yl)cyclopentyl(1-methoxypropan-2-yl)carbamate]
IC50 [1]: 0.013 µM | IC50 [2]: 0.544 µM
